Laboratory results reported in ChEMBL document CHEMBL1201862, “PubChem BioAssay data set” (2004).
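Grown in 96-well plates, cells were treated for 48 hours with each compound at five concentrations. Insufficient inhibition: endpoint recorded as highest concentration tested. At the GI50, growth is halved.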 Calls of active or inactive are those of the source. Cut-off read from the data, not from the text of the source: active = GI50 up to about 1.1 µM and inactive = higher.

Key:
Assay in all cases: NCI-60 cell line screen, 48 h
[1] = test system: NCI/ADR-RES
[2] = test system: UACC-62
[3] = test system: T47D
[4] = test system: PC-3
[5] = test system: KM12
[6] = test system: SNB-19
[7] = test system: MDA-MB-435
[8] = test system: NCI-H522
[9] = test system: Malme-3M
[10] = test system: CCRF-CEM
[11] = test system: SW-620
[12] = test system: SK-MEL-2
[13] = test system: DU-145
[14] = test system: HCC 2998
[15] = test system: HT-29
[16] = test system: UO-31
[17] = test system: UACC-257
[18] = test system: NCI-H23
[19] = test system: RXF 393
[20] = test system: EKVX

Compound: O=C(O)c1cc2ccccc2c(O)c1O
- GI50 [1]: 19.4 µM (inactive)
- GI50 [2]: 5.98 µM (inactive)
- GI50 [3]: 25.8 µM (inactive)
- GI50 [4]: 12.8 µM (inactive)
- GI50 [5]: 16.3 µM (inactive)
- GI50 [6]: 17.9 µM (inactive)
- GI50 [7]: 1.85 µM (inactive)
- GI50 [8]: 15.1 µM (inactive)
- GI50 [9]: 1.8 µM (inactive)
- GI50 [10]: 5.75 µM (inactive)
- GI50 [11]: 19.7 µM (inactive)
- GI50 [12]: 1.03 µM (active)
- GI50 [13]: 18.3 µM (inactive)
- GI50 [14]: 18.8 µM (inactive)
- GI50 [15]: 23.2 µM (inactive)
- GI50 [16]: 20.5 µM (inactive)
- GI50 [17]: 9.68 µM (inactive)
- GI50 [18]: 7.29 µM (inactive)
- GI50 [19]: 17.3 µM (inactive)
- GI50 [20]: 23.4 µM (inactive)
